Experimental data reported in the Kinase Knowledgebase extract (Sharma et al. 2016).
“And” between values parts separate entries of the source, which are not always exact repeats. Equal entries are not always repeated.

target: EGFR (murine) (UniProt P00533); conditions: nih3t3/c7
Sequence (P00533 whole entry, looked up): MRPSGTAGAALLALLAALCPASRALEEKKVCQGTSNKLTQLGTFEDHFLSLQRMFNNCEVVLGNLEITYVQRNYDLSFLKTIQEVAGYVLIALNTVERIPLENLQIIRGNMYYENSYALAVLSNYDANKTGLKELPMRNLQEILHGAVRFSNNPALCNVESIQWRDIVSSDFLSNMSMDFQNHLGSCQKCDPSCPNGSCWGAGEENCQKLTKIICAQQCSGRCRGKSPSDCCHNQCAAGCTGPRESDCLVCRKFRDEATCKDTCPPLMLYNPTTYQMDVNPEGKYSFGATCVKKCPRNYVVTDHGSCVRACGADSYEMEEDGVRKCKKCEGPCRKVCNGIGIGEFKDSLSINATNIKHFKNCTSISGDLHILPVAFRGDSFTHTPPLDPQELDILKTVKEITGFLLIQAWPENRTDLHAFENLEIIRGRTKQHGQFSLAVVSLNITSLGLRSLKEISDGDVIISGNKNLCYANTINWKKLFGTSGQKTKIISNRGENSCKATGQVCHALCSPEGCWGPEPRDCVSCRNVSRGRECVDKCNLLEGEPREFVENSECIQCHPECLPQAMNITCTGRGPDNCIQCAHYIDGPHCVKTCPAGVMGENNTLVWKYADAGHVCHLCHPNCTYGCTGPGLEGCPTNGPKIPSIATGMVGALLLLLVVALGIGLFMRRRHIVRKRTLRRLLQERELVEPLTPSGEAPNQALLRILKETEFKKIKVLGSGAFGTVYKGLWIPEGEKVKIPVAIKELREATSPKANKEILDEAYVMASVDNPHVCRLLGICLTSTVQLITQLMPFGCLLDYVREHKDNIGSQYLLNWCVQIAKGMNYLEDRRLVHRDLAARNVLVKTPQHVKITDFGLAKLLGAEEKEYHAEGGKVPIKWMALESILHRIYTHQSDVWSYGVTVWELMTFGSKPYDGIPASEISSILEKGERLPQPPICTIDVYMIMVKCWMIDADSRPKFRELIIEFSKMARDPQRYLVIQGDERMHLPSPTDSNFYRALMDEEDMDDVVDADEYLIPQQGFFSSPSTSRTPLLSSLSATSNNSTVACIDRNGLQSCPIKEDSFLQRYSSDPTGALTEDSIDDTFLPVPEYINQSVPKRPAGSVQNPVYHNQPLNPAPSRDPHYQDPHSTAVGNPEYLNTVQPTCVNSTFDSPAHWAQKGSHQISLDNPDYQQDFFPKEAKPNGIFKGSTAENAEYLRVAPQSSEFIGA

| SMILES | IC50 |
| --- | --- |
| CC(=O)C1=C(c2ccccc2)[NH+]([O-])c2ccccc2[NH+]1[O-] (stereo not drawn) | > 100 µM |
| N#CC(C#N)=CNNc1cccc(Cl)c1 | > 50 µM |
| CC(=O)ON=C(Cl)C1=C[NH+]([O-])c2cc(Cl)ccc2[NH+]1[O-] (stereo not drawn) | > 50 µM |
| Clc1cccc(Nc2ncnc3ccccc23)c1 | 0.16 µM and 0.2 µM |
| CC(C)(C)c1cc(/C=C(\C#N)S(=O)(=O)/C(C#N)=C/c2cc(C(C)(C)C)c(O)c(C(C)(C)C)c2)cc(C(C)(C)C)c1O | > 100 µM |

Further molecules by falling IC50, results first:

| IC50 | SMILES |
| --- | --- |
| 43 µM | COC(=O)c1ccc(NCc2cc(O)ccc2O)cc1 |
| 31.5 µM | N#C/C(=C\c1cc(O)c(O)c(Br)c1)C(=O)NCCCNC(=O)/C(C#N)=C/c1cc(O)c(O)c(Br)c1 |
| 25 µM | CC(C)(C)c1cc(/C=C(\C#N)c2c(C#N)c(N)nn2-c2ccccc2)cc(C(C)(C)C)c1O |
| 12.5 µM | Cc1cc2nc(CSCCCSCc3nc4cc(C)c(C)cc4nc3-c3ccccc3)c(-c3ccccc3)nc2cc1C |
| 0.86 µM | Cc1ccc2ncnc(Nc3cccc(C(F)(F)F)c3)c2c1 |
| 0.06 µM | Cc1ccc2ncnc(Nc3cccc(Cl)c3)c2c1 |

target: EGFR (human) (UniProt P00533); conditions: a431
Sequence (P00533 whole entry, looked up): as above

| IC50 | SMILES |
| --- | --- |
| 20 µM | Clc1cccc(Nc2ncnc3ccccc23)c1 |
| 10 µM and 20 µM | Cc1ccc2ncnc(Nc3cccc(Cl)c3)c2c1 |
